Experiments:
Type in all cases: in vivo
[1] = system: ragweed (common ragweed, Ambrosia elatior); experiment: Test A postemergence, visual injury rating
Method in brief: (§1)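 Pre- and postemergence greenhouse screen. Soil: loam + sand. Spray carrier: solvent mixture, non-phytotoxic, with surfactant. Post timing at 1–2 leaves, height 2–10 cm. Readout: visual injury on a 0–100 scale roughly 10 days after application, untreated plants as reference.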

[2] = system: wheat (Triticum aestivum); experiment: Test A postemergence, visual injury rating
Method in brief: as §1

[3] = system: giant foxtail (Setaria faberii); experiment: Test A postemergence, visual injury rating
Method in brief: as §1

[4] = system: corn (Zea mays); experiment: Test A postemergence, visual injury rating
Method in brief: as §1

[5] = system: pigweed (Amaranthus retroflexus); experiment: Test A postemergence, visual injury rating
Method in brief: as §1

[6] = system: kochia (Kochia scoparia); experiment: Test A postemergence, visual injury rating
Method in brief: as §1

[7] = system: Italian ryegrass (Lolium multiflorum); experiment: Test A postemergence, visual injury rating
Method in brief: as §1

[8] = system: ducksalad (Heteranthera limosa); experiment: Test B flooded paddy test, plant response rating; settings: 250 g ai/ha; Flood; scale of 0 to 100 where 0 is no effect and 100 is complete control; 13 to 15 days
Method in brief: (§2)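 Compound was added to standing water 3 cm above soil, flood maintained, and plants held in a greenhouse before visual scoring against controls at 13 to 15 days.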

[9] = system: sedge, umbrella (small-flower umbrella sedge, Cyperus difformis); experiment: Test B flooded paddy test, plant response rating; settings: 250 g ai/ha; Flood; scale of 0 to 100 where 0 is no effect and 100 is complete control; 13 to 15 days
Method in brief: as §2

[10] = system: rice (Oryza sativa); experiment: Test B flooded paddy test, plant response rating; settings: 250 g ai/ha; Flood; scale of 0 to 100 where 0 is no effect and 100 is complete control; 13 to 15 days
Method in brief: as §2

[11] = system: barnyardgrass (Echinochloa crus-galli); experiment: Test B flooded paddy test, plant response rating; settings: 250 g ai/ha; Flood; scale of 0 to 100 where 0 is no effect and 100 is complete control; 13 to 15 days
Method in brief: as §2

[12] = system: ragweed (common ragweed, Ambrosia elatior); experiment: Test C postemergence, plant response rating; settings: for Ragweed plant response rating: scale 0 to 100 (0 no effect, 100 complete control)
Method in brief: (§3)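 Greenhouse plants rated visually against untreated controls 13–15 d after treatment, scale 0 = no effect to 100 = complete control. Postemergence sprays went onto potted plants 2–18 cm tall (1–4 leaves); preemergence sprays onto soil freshly sown in loam–sand or silt loam, chemicals formulated in non-phytotoxic solvent with surfactant.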

[13] = system: morningglory (Ipomoea coccinea); experiment: Test C postemergence, plant response rating; settings: for Morningglory plant response rating: scale 0 to 100 (0 no effect, 100 complete control)
Method in brief: as §3

[14] = system: oilseed rape (Brassica napus); experiment: Test C postemergence, plant response rating; settings: for Oilseed Rape plant response rating: scale 0 to 100 (0 no effect, 100 complete control)
Method in brief: as §3

[15] = system: kochia (Kochia scoparia); experiment: Test C postemergence, plant response rating; settings: for Kochia plant response rating: scale 0 to 100 (0 no effect, 100 complete control)
Method in brief: as §3

[16] = system: waterhemp (common waterhemp, Amaranthus rudis); experiment: Test C postemergence, plant response rating; settings: for Waterhemp plant response rating: scale 0 to 100 (0 no effect, 100 complete control)
Method in brief: as §3

[17] = system: velvetleaf (Abutilon theophrasti); experiment: Test C postemergence, plant response rating; settings: for Velvetleaf plant response rating: scale 0 to 100 (0 no effect, 100 complete control)
Method in brief: as §3

[18] = system: barnyardgrass (Echinochloa crus-galli); experiment: Test C postemergence, plant response rating; settings: for Barnyardgrass plant response rating: scale 0 to 100 (0 no effect, 100 complete control)
Method in brief: as §3

[19] = 125 g ai/ha, 0 is no effect, 100 is complete control
[20] = 500 g ai/ha, 0 is no effect, 100 is complete control
[21] = 31 g ai/ha, 0 to 100 scale (0 no effect, 100 complete control)
[22] = 125 g ai/ha, 0 to 100 scale, 0 is no effect, 100 is complete control, approximately 10 days
[23] = 31 g ai/ha, 0 to 100 scale, 0 is no effect, 100 is complete control, approximately 10 days

O=C(OCC(F)(F)F)c1c(Br)cccc1Oc1ncc(Cl)cn1 [Compound 35]
Ragweed plant response rating (0 to 100 scale) [1, 19]: 0 | Ragweed plant response rating (0 to 100 scale) [1, 20]: 0 | Wheat plant response rating (0 to 100 scale) [2, 19]: 0 | Wheat plant response rating (0 to 100 scale) [2, 20]: 20 | Foxtail, Giant plant response rating (0 to 100 scale) [3, 19]: 40 | Foxtail, Giant plant response rating (0 to 100 scale) [3, 20]: 100 | Corn plant response rating (0 to 100 scale) [4, 19]: 20 | Corn plant response rating (0 to 100 scale) [4, 20]: 30 | Pigweed plant response rating (0 to 100 scale) [5, 19]: 100 | Pigweed plant response rating (0 to 100 scale) [5, 20]: 100 | Kochia plant response rating (0 to 100 scale) [6, 19]: 90 | Kochia plant response rating (0 to 100 scale) [6, 20]: 100 | Ryegrass, Italian plant response rating (0 to 100 scale) [7, 19]: 0 | Ryegrass, Italian plant response rating (0 to 100 scale) [7, 20]: 40 | Plant response rating, Ducksalad [8]: 50 | Plant response rating, Sedge, Umbrella [9]: 60 | Plant response rating, Rice [10]: 0 | Plant response rating, Barnyardgrass [11]: 0 | Plant response rating, Ragweed ([12]; 16 g ai/ha, scale 0 to 100): 0 | Plant response rating, Ragweed ([12]; 31 g ai/ha, scale 0 to 100): 5 | Ragweed plant response rating ([12]; 62 g ai/ha): 10 | Ragweed plant response rating ([12]; 125 g ai/ha): 20 | Plant response rating, Morningglory ([13]; 16 g ai/ha, scale 0 to 100): 40 | Plant response rating, Morningglory ([13]; 31 g ai/ha, scale 0 to 100): 50 | Morningglory plant response rating ([13]; 62 g ai/ha): 60 | Morningglory plant response rating ([13]; 125 g ai/ha): 60 | Plant response rating, Oilseed Rape ([14]; 16 g ai/ha, scale 0 to 100): 20 | Plant response rating, Oilseed Rape ([14]; 31 g ai/ha, scale 0 to 100): 30 | Oilseed Rape plant response rating ([14]; 62 g ai/ha): 50 | Oilseed Rape plant response rating ([14]; 125 g ai/ha): 65 | Plant response rating, Kochia ([15]; 16 g ai/ha, scale 0 to 100): 5 | Plant response rating, Kochia ([15]; 31 g ai/ha, scale 0 to 100): 40 | Kochia plant response rating ([15]; 62 g ai/ha): 60 | Kochia plant response rating ([15]; 125 g ai/ha): 90 | Plant response rating, Waterhemp ([16]; 16 g ai/ha, scale 0 to 100): 65 | Plant response rating, Waterhemp ([16]; 31 g ai/ha, scale 0 to 100): 80 | Waterhemp plant response rating ([16]; 62 g ai/ha): 90 | Waterhemp plant response rating ([16]; 125 g ai/ha): 95 | Plant response rating, Velvetleaf ([17]; 16 g ai/ha, scale 0 to 100): 40 | Plant response rating, Velvetleaf ([17]; 31 g ai/ha, scale 0 to 100): 30 | Velvetleaf plant response rating ([17]; 62 g ai/ha): 35 | Velvetleaf plant response rating ([17]; 125 g ai/ha): 40 | Plant response rating, Barnyardgrass ([18]; 16 g ai/ha, scale 0 to 100): 5 | Plant response rating, Barnyardgrass ([18]; 31 g ai/ha, scale 0 to 100): 5 | Barnyardgrass plant response rating ([18]; 62 g ai/ha): 10 | Barnyardgrass plant response rating ([18]; 125 g ai/ha): 15

N#CC(CCCC(F)(F)F)c1ccccc1Oc1ncc(Cl)cn1 (stereo not drawn) [Compound 144]
Ragweed plant response rating [1, 21]: 10 | Ragweed plant response rating [1, 22]: 10 | Wheat plant response rating [2, 21]: 10 | Wheat plant response rating [2, 22]: 60 | Foxtail, Giant plant response rating [3, 21]: 60 | Foxtail, Giant plant response rating [3, 22]: 90 | Corn plant response rating [4, 21]: 20 | Corn plant response rating [4, 22]: 80 | Pigweed plant response rating [5, 21]: 90 | Pigweed plant response rating [5, 22]: 100 | Kochia plant response rating [6, 21]: 90 | Kochia plant response rating [6, 22]: 100 | Ryegrass, Italian plant response rating [7, 21]: 30 | Ryegrass, Italian plant response rating [7, 22]: 80 | Plant response rating, Ducksalad [8]: 100 | Plant response rating, Sedge, Umbrella [9]: 100 | Plant response rating, Rice [10]: 35 | Plant response rating, Barnyardgrass [11]: 70 | Plant response rating, Ragweed ([12]; 16 g ai/ha, scale of 0 to 100): 10 | Plant response rating, Ragweed ([12]; 31 g ai/ha, scale 0 to 100): 15 | Ragweed plant response rating ([12]; 62 g ai/ha): 25 | Ragweed plant response rating ([12]; 125 g ai/ha): 15 | Plant response rating, Morningglory ([13]; 16 g ai/ha, scale of 0 to 100): 30 | Plant response rating, Morningglory ([13]; 31 g ai/ha, scale 0 to 100): 20 | Morningglory plant response rating ([13]; 62 g ai/ha): 50 | Morningglory plant response rating ([13]; 125 g ai/ha): 60 | Plant response rating, Oilseed Rape ([14]; 16 g ai/ha, scale of 0 to 100): 35 | Plant response rating, Oilseed Rape ([14]; 31 g ai/ha, scale 0 to 100): 35 | Oilseed Rape plant response rating ([14]; 62 g ai/ha): 70 | Oilseed Rape plant response rating ([14]; 125 g ai/ha): 85 | Plant response rating, Kochia ([15]; 16 g ai/ha, scale of 0 to 100): 85 | Plant response rating, Kochia ([15]; 31 g ai/ha, scale 0 to 100): 90 | Kochia plant response rating ([15]; 62 g ai/ha): 90 | Kochia plant response rating ([15]; 125 g ai/ha): 90 | Plant response rating, Waterhemp ([16]; 16 g ai/ha, scale of 0 to 100): 35 | Plant response rating, Waterhemp ([16]; 31 g ai/ha, scale 0 to 100): 60 | Waterhemp plant response rating ([16]; 125 g ai/ha): 75 | Plant response rating, Waterhemp ([16]; rate not given, scale 0 to 100): 75 | Plant response rating, Velvetleaf ([17]; 16 g ai/ha, scale of 0 to 100): 25 | Plant response rating, Velvetleaf ([17]; 31 g ai/ha, scale 0 to 100): 30 | Velvetleaf plant response rating ([17]; 125 g ai/ha): 65 | Plant response rating, Barnyardgrass ([18]; 16 g ai/ha, scale of 0 to 100): 5 | Plant response rating, Barnyardgrass ([18]; 31 g ai/ha, scale 0 to 100): 5 | Barnyardgrass plant response rating ([18]; 62 g ai/ha): 10 | Barnyardgrass plant response rating ([18]; 125 g ai/ha): 10

O=C(CCC(F)(F)C(F)(F)F)c1c(Br)cccc1Oc1ncc(Cl)cn1 [Compound 110]
Ragweed plant response rating [1, 23]: 0 | Ragweed plant response rating [1, 22]: 0 | Wheat plant response rating [2, 23]: 0 | Wheat plant response rating [2, 22]: 20 | Foxtail, Giant plant response rating [3, 23]: 30 | Foxtail, Giant plant response rating [3, 22]: 90 | Corn plant response rating [4, 23]: 20 | Corn plant response rating [4, 22]: 50 | Pigweed plant response rating [5, 23]: 90 | Pigweed plant response rating [5, 22]: 100 | Kochia plant response rating [6, 23]: 100 | Kochia plant response rating [6, 22]: 100 | Ryegrass, Italian plant response rating [7, 23]: 0 | Ryegrass, Italian plant response rating [7, 22]: 20 | Plant response rating, Ducksalad [8]: 75 | Plant response rating, Sedge, Umbrella [9]: 90 | Plant response rating, Rice [10]: 25 | Plant response rating, Barnyardgrass [11]: 25 | Plant response rating, Ragweed ([12]; 16 g ai/ha, scale of 0 to 100): 40 | Plant response rating, Ragweed ([12]; 31 g ai/ha, scale 0 to 100): 50 | Ragweed plant response rating ([12]; 62 g ai/ha): 60 | Ragweed plant response rating ([12]; 125 g ai/ha): 60 | Plant response rating, Morningglory ([13]; 16 g ai/ha, scale of 0 to 100): 30 | Plant response rating, Morningglory ([13]; 31 g ai/ha, scale 0 to 100): 50 | Morningglory plant response rating ([13]; 62 g ai/ha): 60 | Morningglory plant response rating ([13]; 125 g ai/ha): 50 | Plant response rating, Oilseed Rape ([14]; 16 g ai/ha, scale of 0 to 100): 60 | Plant response rating, Oilseed Rape ([14]; 31 g ai/ha, scale 0 to 100): 60 | Oilseed Rape plant response rating ([14]; 62 g ai/ha): 85 | Oilseed Rape plant response rating ([14]; 125 g ai/ha): 95 | Plant response rating, Kochia ([15]; 16 g ai/ha, scale of 0 to 100): 95 | Plant response rating, Kochia ([15]; 31 g ai/ha, scale 0 to 100): 100 | Kochia plant response rating ([15]; 62 g ai/ha): 100 | Kochia plant response rating ([15]; 125 g ai/ha): 100 | Plant response rating, Waterhemp ([16]; 16 g ai/ha, scale of 0 to 100): 85 | Plant response rating, Waterhemp ([16]; 31 g ai/ha, scale 0 to 100): 90 | Waterhemp plant response rating ([16]; 125 g ai/ha): 95 | Plant response rating, Velvetleaf ([17]; 16 g ai/ha, scale of 0 to 100): 50 | Plant response rating, Velvetleaf ([17]; 31 g ai/ha, scale 0 to 100): 40 | Velvetleaf plant response rating ([17]; 125 g ai/ha): 75 | Plant response rating, Barnyardgrass ([18]; 16 g ai/ha, scale 0 to 100): 10 | Plant response rating, Barnyardgrass ([18]; 31 g ai/ha, scale 0 to 100): 10 | Barnyardgrass plant response rating ([18]; 62 g ai/ha): 20 | Barnyardgrass plant response rating ([18]; 125 g ai/ha): 30
